Measurements from patent publication US10385050B2, “Indolin-2-one and 1,3-dihydro-pyrrolo[3,2-c]pyridin-2-one derivatives” (Hoffmann-La Roche Inc., priority 2014, dated 2019).

Columns and labels:
[1] = test system: L-687,414-induced hyperlocomotion; assay: Reversal of L-687,414-induced hyperlocomotion (Digiscan locomotor activity); type: in vivo, mouse; conditions: dose producing 50% inhibition of L-687,414-induced hyperlocomotion; p.o. 15 min before s.c. 50 mg/kg L-687,414; doses 1-3-10 (Expl. 2: 3-10-30) mg/kg
Text: The authors described that hyperlocomotion induced by L-687,414 was inhibited by a series of known antipsychotic drugs. […] These findings predict antipsychotic activity for the present compounds, making them useful for the treatment of positive (psychosis) and negative symptoms of schizophrenia, substance abuse, alcohol and drug addiction, obsessive-compulsive disorders, cognitive impairment, bipolar disorders, mood disorders, major depression, resistant depression, anxiety disorders, Alzheimer's disease, autism, Parkinson's disease, chronic pain, borderline personality disorder, sleep disturbances, chronic fatigue syndrome, stiffness, antiinflammatory effects in arthritis and balance problems.
The described compounds of formula I reduce L-687,414-induced hyperlocomotion. This was assessed by using a computerized Digiscan 16 Animal Activity Monitoring System (Omnitech Electronics, Columbus, Ohio) to quantify locomotor activity. Animals were kept under a 12 h light/dark cycle and experiments were performed during the light period. Each activity monitoring chamber consisted of a Plexiglas box (41×41×28 cm; W×L×H) with sawdust bedding on the floor surrounded by invisible horizontal and vertical infrared sensor beams. The test boxes were divided by a Plexiglas cross providing each mouse with 20×20 cm of moving space. Cages were connected to a Digiscan Analyzer linked to a computer that constantly collected the beam status information. Records of photocell beam interruptions for individual animals were taken every 5 min over the duration of the experimental session and the sum of the first 6 periods was used as the final parameter. Compounds were administered either p.o. 15 min before a s.c. injection of 50 mg/kg of L-687,414, or i.p. at the same time as a s.c. injection of 50 mg/kg of L-687,414. Mice were then transferred from their home cage to the recording chambers for a 15-min habituation phase allowing free exploration of the new environment. Horizontal activity was then recorded for a 30-min time period. The % inhibition of L-687,414-induced hyperlocomotion was calculated according to the equation: ((Veh+L-687,414 horizontal activity−drug+L-687,414 horizontal activity)/Veh+L−687,414 horizontal activity)×100
ID50 values, defined as doses of each compound producing 50% inhibition of L-687,414-induced hyperlocomotion, were calculated by linear regression analysis of a dose-response data using an Excel-based computer-fitting program.
As data was not presupposed to be normally distributed, groups treated with test compounds were statistically compared with the control (vehicle-treated) group using one-tailed Mann Whitney U tests. In statistics, the Mann-Whitney U test (also called the Mann-Whitney-Wilcoxon (MWW) or Wilcoxon rank-sum test) is a non-parametric statistical hypothesis test for assessing whether one of two samples of independent observations tends to have larger values than the other. It is one of the most well-known non-parametric significance tests. […] P values given in table 1 are one-tailed since only decreases in locomotion were expected and tested for (Mann, H. B., Whitney, D. R. (1947), “On a Test of Whether one of Two Random Variables is Stochastically Larger than the Other”, Annals of Mathematical Statistics, 18 (1), 50-60).

[2] = test system: behaviors of compound-treated mice; assay: SmartCube behavioral signature and similarity analysis to atypical antipsychotics; type: in vivo, mouse; conditions: 25 mg/kg i.p.; for SmartCube signature (class similarity): FIG. 1; for Similarity analysis: discrimination rate vs Clozapine / Similarity analysis: discrimination rate vs Olanzapine / Similarity analysis: discrimination rate vs Risperidone: rate of 0.70 or lower = similar, 0.5 = zero distinguishability
Text: In addition to the reversal of L-687,414 induced hyperlocomotion experiment as described above, some compounds of the present invention have been tested in SmartCube®, an automated system in which the behaviors of compound-treated mice in response to multiple challenges are captured by digital video and analyzed with computer algorithms (Roberds et al., Frontiers in Neuroscience, 2011, Vol. 5, Art. 103, 1-4). In this way, the neuro-pharmacological effects of a test compound can be predicted by similarity to major classes of compounds, such as antipsychotics, anxiolytics and antidepressants.
As mentioned above, some compounds have been tested in SmartCube®, an analytical system developed by PsychoGenics Inc.
SmartCube® was used to compare the behavioral signature of a test compound to a database of behavioral signatures obtained from a large set of clinically approved reference drugs, grouped per indications. In this way, the neuro-pharmacological effects of a test compound can be predicted by similarity to major classes of compounds, such as antipsychotics, anxiolytics and antidepressants. This approach is ideally suited to screen collections of existing drugs or drug candidates with previously unknown neuropharmacology, which could expedite the development of new and unexpected treatments for psychiatric disorders.
Some compounds of the present invention were injected i.p. at different doses 15 minutes before the test. At least 8 mice were used in each treatment group. Digital videos of the subjects were processed with computer vision algorithms to extract over 2000 dependent measures including frequency and duration of many different behavioral states. The results of the classifications are presented as bar charts for each compound and dose (mg/kg), the Y-axis indicates the relative probability that the test compound will show efficacy in the specific CNS indication.
Compounds of the present invention show similar signatures to those of atypical antipsychotics. An independent analysis was performed on the unclassified data to determine the similarity of the example compounds to active doses of known atypical antipsychotics. For this analysis, we use discrimination rate as the measure of separability between the two drugs, i.e. one drug's “distinguishability” from another. A rate equal to 50% (or 0.5) corresponds to zero distinguishability. […] In most cases, the example compounds show a similarity to risperidone, clozapine and olanzapine with a discrimination rate of ≤0.70.

Structure (SMILES) | ID50 po [1] [mg/kg] | SmartCube signature (class similarity) [2] | Similarity analysis: discrimination rate vs Clozapine [2] | Similarity analysis: discrimination rate vs Olanzapine [2] | Similarity analysis: discrimination rate vs Risperidone [2]
Cc1cc(-c2ncc(-c3ccc4c(c3)NC(=O)C4(C)C)o2)ccn1 [Example 35, 3,3-Dimethyl-6-(2-(2-methylpyridin-4-yl)oxazol-5-yl)indolin-2-one] | 5.82 | similarity to atypical antipsychotics | 0.69 | 0.75 | 0.60
CC1(C)C(=O)Nc2cc(-n3cnc(-c4ccncc4)c3)ccc21 [Example 47, 3,3-Dimethyl-6-(4-(pyridin-4-yl)-1H-imidazol-1-yl)indolin-2-one] | – | similarity to atypical antipsychotics | 0.70 | 0.68 | 0.64
Cc1cc(-n2cnc(-c3ccc4c(c3)N(C)C(=O)C4(C)C)c2)ccn1 [Example 62, 1,3,3-Trimethyl-6-(1-(2-methylpyridin-4-yl)-1H-imidazol-4-yl)indolin-2-one] | 8.8 | similarity to atypical antipsychotics | 0.59 | 0.62 | 0.58
CC1(C)C(=O)Nc2cc(-c3cn(-c4cccnc4)cn3)ccc21 [Example 93, 3,3-Dimethyl-6-(1-(pyridin-3-yl)-1H-imidazol-4-yl)indolin-2-one] | – | similarity to atypical antipsychotics | 0.63 | 0.68 | 0.60
